Experimental data published in PMC12606247, “Bidirectional communication between nucleotide and substrate binding sites in a type IV multidrug ABC transporter” (Nature Communications, 2025).

Columns and labels:
[1] = target: LmrA NBD (Lactococcus cremoris, UniProt P97046); experiment: 1H, […]-HSQC NMR chemical shift perturbation; type: binding; conditions: 50 mM BisTris pH 7, 50 mM NaCl, 298 K
[2] = target: MsbA NBD (Escherichia coli, UniProt P60752); experiment: 1H, […]-HSQC NMR chemical shift perturbation; type: binding; conditions: 50 mM BisTris pH 7, 50 mM NaCl, 298 K
MsbA NBD, sequence (P60752 323-582): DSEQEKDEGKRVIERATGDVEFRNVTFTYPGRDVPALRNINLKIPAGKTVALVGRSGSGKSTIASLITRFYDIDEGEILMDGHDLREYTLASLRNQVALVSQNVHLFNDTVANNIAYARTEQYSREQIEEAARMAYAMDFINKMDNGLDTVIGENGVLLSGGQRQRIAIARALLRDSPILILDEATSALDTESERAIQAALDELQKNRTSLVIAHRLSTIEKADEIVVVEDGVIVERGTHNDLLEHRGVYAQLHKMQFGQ

[3] = target: T1, BmrA NBD (Bacillus subtilis, UniProt O06967); experiment: 1H, […]-HSQC NMR chemical shift perturbation; type: binding; conditions: 10 mM ATP, 50 mM BisTris pH 7, 50 mM NaCl, 298 K
T1 sequence (O06967 331-589): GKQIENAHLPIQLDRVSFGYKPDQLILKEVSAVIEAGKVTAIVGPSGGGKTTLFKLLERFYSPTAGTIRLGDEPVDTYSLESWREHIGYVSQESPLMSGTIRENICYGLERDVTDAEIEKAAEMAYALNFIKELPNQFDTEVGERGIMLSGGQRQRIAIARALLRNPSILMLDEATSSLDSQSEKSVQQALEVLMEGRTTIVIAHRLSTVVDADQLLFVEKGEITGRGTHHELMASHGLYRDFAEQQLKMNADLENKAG

[4] = target: T2, BmrA full-length (Bacillus subtilis, UniProt O06967); experiment: ATPase assay coupled to NADH oxidation (also […] NMR); type: biochemical; conditions: 10 mM MgCl2, pH 8, 37 °C; detergent, nanodiscs or liposomes
T2 construct: full-length half transporter, C-terminal His6 tag, E. coli C41(DE3); homodimer in DDM/cholate, MSP1E3D1 nanodiscs or inside-out vesicles
T2 sequence (O06967 whole entry): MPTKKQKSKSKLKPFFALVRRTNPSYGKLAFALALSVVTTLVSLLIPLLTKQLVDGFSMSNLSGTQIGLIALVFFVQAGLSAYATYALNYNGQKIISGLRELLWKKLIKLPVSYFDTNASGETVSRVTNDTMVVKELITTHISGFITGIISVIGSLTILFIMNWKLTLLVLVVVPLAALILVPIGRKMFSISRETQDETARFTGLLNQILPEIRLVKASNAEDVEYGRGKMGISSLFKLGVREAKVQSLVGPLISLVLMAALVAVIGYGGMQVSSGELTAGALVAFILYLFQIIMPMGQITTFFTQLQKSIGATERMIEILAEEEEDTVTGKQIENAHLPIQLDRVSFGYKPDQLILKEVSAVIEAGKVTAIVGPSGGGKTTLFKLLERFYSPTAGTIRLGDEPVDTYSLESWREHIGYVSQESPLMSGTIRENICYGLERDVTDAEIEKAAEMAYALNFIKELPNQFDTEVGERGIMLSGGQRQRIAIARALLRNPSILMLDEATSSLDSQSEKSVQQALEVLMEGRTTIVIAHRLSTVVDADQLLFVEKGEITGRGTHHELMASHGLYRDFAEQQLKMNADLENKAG

[5] = target: T2, BmrA full-length; experiment: HDX-MS (also fluorescence transport assay in inside-out vesicles); type: binding; conditions: 100 μM doxorubicin, nanodiscs, pD 8.0, 20 °C
[6] = target: BmrA NBD (Bacillus subtilis, UniProt O06967, R389M); experiment: biochemical
BmrA NBD (Bacillus subtilis, UniProt O06967, R389M), sequence (O06967 331-589 R389M): as the sequence (O06967 331-589) above, with R59M counted along it

[7] = target: BmrA NBD (Bacillus subtilis, UniProt O06967, R389K); experiment: biochemical
BmrA NBD (Bacillus subtilis, UniProt O06967, R389K), sequence (O06967 331-589 R389K): as the sequence (O06967 331-589) above, with R59K counted along it

[8] = target: T1, BmrA NBD; experiment: dissociation constant (method not stated in main text); type: binding; conditions: read-out: KD, ADP
[9] = target: BmrA NBD (Bacillus subtilis, UniProt O06967, R414K); experiment: biochemical
BmrA NBD (Bacillus subtilis, UniProt O06967, R414K), sequence (O06967 331-589 R414K): as the sequence (O06967 331-589) above, with R84K counted along it

[10] = target: BmrA NBD (Bacillus subtilis, UniProt O06967, W413F); experiment: biochemical
BmrA NBD (Bacillus subtilis, UniProt O06967, W413F), sequence (O06967 331-589 W413F): as the sequence (O06967 331-589) above, with W83F counted along it

[11] = target: BmrA NBD (Bacillus subtilis, UniProt O06967, K380A); experiment: biochemical
BmrA NBD (Bacillus subtilis, UniProt O06967, K380A), sequence (O06967 331-589 K380A): as the sequence (O06967 331-589) above, with K50A counted along it

[12] = target: BmrA NBD (Bacillus subtilis, UniProt O06967, R414A); experiment: biochemical
BmrA NBD (Bacillus subtilis, UniProt O06967, R414A), sequence (O06967 331-589 R414A): as the sequence (O06967 331-589) above, with R84A counted along it

[13] = target: T2, BmrA full-length; experiment: […] NMR of 5-fluorotryptophan-labelled protein (W413 line broadening); type: binding; conditions: 15 mM reserpine, MSP1E3D1 nanodiscs, E. coli polar lipids, 298 K

LmrA NBD, sequence (P97046 330-590): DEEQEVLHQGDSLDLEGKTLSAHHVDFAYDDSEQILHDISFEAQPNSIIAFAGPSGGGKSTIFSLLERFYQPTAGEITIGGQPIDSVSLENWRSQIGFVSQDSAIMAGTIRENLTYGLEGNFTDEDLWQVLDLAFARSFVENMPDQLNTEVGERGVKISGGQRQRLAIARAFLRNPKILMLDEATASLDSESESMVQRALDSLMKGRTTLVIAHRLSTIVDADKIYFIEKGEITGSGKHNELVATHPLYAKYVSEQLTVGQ

Nc1ncnc2c1ncn2[C@@H]1O[C@H](COP(=O)(O)OP(=O)(O)OP(=O)(O)O)[C@@H](O)[C@H]1O [ATP]
1H,15N-HSQC NMR chemical shift perturbation ([1]; 10 mM ATP): (BmrA W413, LmrA W421, MsbA L415) responded to the addition of ATP or ADP
1H,15N-HSQC NMR chemical shift perturbation ([2]; 10 mM ATP): (BmrA W413, LmrA W421, MsbA L415) responded to the addition of ATP or ADP
1H,15N-HSQC NMR chemical shift perturbation [3]: (BmrA W413, LmrA W421, MsbA L415) responded to the addition of ATP or ADP
ATPase assay coupled to NADH oxidation (also 19F NMR) [4]: ATPase activity of purified BmrA full-length WT, K380A and hinge mutant constructs was determined

COc1cccc2c1C(=O)c1c(O)c3c(c(O)c1C2=O)C[C@@](O)(C(=O)CO)C[C@@H]3O[C@H]1C[C@H](N)[C@H](O)[C@H](C)O1 [doxorubicin]
HDX-MS (also fluorescence transport assay in inside-out vesicles) [5]: in the absence and presence of doxorubicin showed decreased exchange in the TMD

Nc1ncnc2c1ncn2[C@@H]1O[C@H](COP(=O)(O)OP(=O)(O)O)[C@@H](O)[C@H]1O [ADP]
Kd [6]: 2890 ± 1460 µM
Kd [7]: 221 ± 105 µM
1H,15N-HSQC NMR chemical shift perturbation ([1]; 10 mM ADP): (BmrA W413, LmrA W421, MsbA L415) responded to the addition of ATP or ADP
Kd [8]: 214 ± 43 µM
1H,15N-HSQC NMR chemical shift perturbation ([2]; 10 mM ADP): (BmrA W413, LmrA W421, MsbA L415) responded to the addition of ATP or ADP
Kd [9]: 266 ± 97 µM
Kd [10]: 221 ± 54 µM
Kd [11]: 14400 ± 3700 µM
Kd [12]: 575 ± 43.5 µM

COC(=O)[C@H]1[C@H]2C[C@@H]3c4[nH]c5cc(OC)ccc5c4CCN3C[C@H]2C[C@@H](OC(=O)c2cc(OC)c(OC)c(OC)c2)[C@@H]1OC [reserpine]
19F NMR of 5-fluorotryptophan-labelled protein (W413 line broadening) [13]: Addition of ATP or the substrate reserpine resulted in changes in chemical shift and linewidths
